Assays:
calf thymus DNA = assay: Radiation-induced calf thymus DNA fragmentation assay; format: biochemical; conditions: 50 Gy
Experimental: Plasmid DNA (pBR322) or calf thymus DNA samples with or without varying concentrations of SDG (R,R), SDG (S,S) and SDG (commercial) were exposed to γ-radiation with a Mark 1 cesium (Cs-137) irradiator (J. L. Shepherd, San Fernando, Calif.) at a dose rate of 1.7 Gy/min in phosphate buffered saline, pH 7.4 (PBS).
The effect of test compounds on radiation-induced strand breaks in DNA was determined using calf thymus DNA (Sigma, St. Louis, Mo.). DNA (500 ng) in PBS (pH 7.4) was mixed with varying concentrations (25-250 μM) of SDG (R,R), SDG (S,S) and SDG (commercial) and irradiated at 50 Gy for 30 min. A second series of experiments were performed at varying concentrations ranging from 0.5-10 μM. Samples were mixed with loading dye and subjected to agarose (1%) gel electrophoresis in TAE buffer (pH, 8.3) at 100 V. The gel was stained with ethidium bromide (0.5 μg/ml) for 40 min, washed for 20 min and then visualized on a UV trans-illuminator (Bio-Rad, Hercules, Calif.). The captured gel images were scanned and the density of the calf thymus DNA fragments was determined by Gel-Pro image analyzer program (Media Cybernetics, Silver Spring, Md.). The density of the low mol. wt (<6,000 bps) and the high mol. wt (>6,000 bps) fragments of calf thymus DNA was expressed as % of the total density (low mol wt.+high mol. wt.).

[1] = test system: murine primary lung epithelial cells; assay: γ-H2AX foci immunostaining, epithelial cells; format: cell-based, mouse; conditions: SDG 50 μM 6 h prior IR; 2 Gy; irradiated control 46.7% at 30 min
Experimental: (§1) Fibroblasts and endothelial cells were isolated from C57/bl6 mouse. For fibroblast isolation, mouse lungs were harvested, minced, and incubated with dispase (2 mg/ml) for 45 minutes. Pieces were plated out and fibroblasts were cultured as described previously and used between passages 3 and 10. Pulmonary microvascular endothelial cells (PMVEC) were isolated from murine lungs as described previously. Briefly, freshly harvested mouse lungs were treated with collagenase followed by isolation of cells by adherence to magnetic beads coated with mAb to platelet endothelial cell adhesion molecule (PECAM). Epithelial cells (C10) cells were originally derived from a normal BALB/c mouse lung explant and are non-tumorigenic, contact-inhibited, and have alveolar type 2 cell features at early passage.
For immunostaining of γ-H2AX, cells were plated on glass coverslips (5,000 cells/coverslip), pre-treated (6 h) with 50 μM SDG and irradiated (2 Gy). At desired time interval, cells were fixed (4% para-formaldehyde), washed and blocked with PBST (PBS+0.1% TritonX-100 containing 5% goat serum, 1% BSA). Cells were incubated with γ-H2AX primary antibody (1:200) overnight at 4° C. followed by washing with PBST (3×5 min) and incubation with secondary antibody (Alexa Fluor® 488, Invitrogen, Calif., USA) for 1 hr at RT. Nuclei were counterstained with DAPI and visualized under fluorescence microscope.

[2] = test system: murine primary lung epithelial cells; assay: Morphological detection of apoptotic cells, epithelial cells; format: cell-based, mouse; conditions: SDG 50 μM pre-treatment; irradiated; 24 h; IR alone 13.9%
Experimental: as §1, with “Epithelial cells (C10) cells were originally derived from a normal BALB/c mouse lung explant and are non-tumorigenic, contact-inhibited, and have alveolar type 2 cell features at early passage.” left out
Apoptotic cells are morphologically characterized by condensation of nucleus and cytoplasm, membrane blebbing, cell shrinkage, and breakdown of nuclear DNA, first in large segments and subsequently in nucleosomal fragments and finally formation of well-enclosed apoptotic bodies. Percentage of cells undergoing apoptosis was determined microscopically from the slides used for micronuclei detection (cytogenetic damage). At least, 500 cells were counted for each experiment (experiment done twice) and percent apoptotic cells were determined as follows: % Cell Death=Na/Nt×100, where Na is the number of cells with apoptotic bodies and Nt is the total number of cells analyzed. Gene Expression Analysis by Quantitative Real Time PCR (qPCR)

[3] = test system: Murine primary lung cells (epithelial cells); assay: qPCR of Bax and Bcl-2 gene expression after irradiation; format: cell-based, mouse; conditions: for Bcl-2 mRNA levels, increase: SDG pre-treated cells
Experimental: qPCR was performed using TaqMan® Probe-Based Gene Expression Assays supplied by Applied Biosystems, Life Technologies (Carlsbad, Calif.). To evaluate the effect of SDG treatment on the mRNA expression of apoptotic genes, individual TaqMan® gene expression assays were performed for Bax (Mm00432051_m1) and Bcl-2 (Mm00477631_m1).
Briefly, cells were pre-treated with SDG (50 μM, 6 hrs) and irradiated (2 Gy). Total RNA was isolated from using RNeasy Plus Mini Kit (Qiagen, Valencia, Calif.) and quantified using a NanoDrop 2000 (ThermoFisher Scientific, Waltham, Mass.). Reverse transcription of RNA to cDNA was then performed on a Veriti® Thermal Cycler using the High Capacity RNA to cDNA kit supplied by Applied Biosystems, Life Technologies (Carlsbad, Calif.). qPCR was performed using 25 ng of cDNA per reaction well on a StepOnePlus™ Real-Time PCR System (Applied Biosystems, Life Technologies, Carlsbad, Calif.). Gene expression data was normalized to 18S ribosomal RNA and calibrated to untreated control samples according to the ΔΔCT method.

[4] = Hypochlorite scavenging with APF/HPF fluorescent probes (sodium hypochlorite); conditions: commercially available SDG; FIG. 15B
Experimental: (§2) The fluorescence of ROS probes APF and HPF in PBS was measured at excitation/emission at 490 nm/515 nm in presence of hypochlorite or after γ-radiation exposure. Data is expressed as relative fluorescence units (RFU).

[5] = Scavenging of γ-radiation-induced hypochlorite (APF/HPF fluorescence in PBS)
Experimental: as §2

plasmid DNA = assay: Hypochlorite-induced damage to plasmid DNA; format: biochemical; conditions: SDG 25 μM; 4.5 mM HOCl
Experimental: Calf thymus or plasmid DNA was incubated with hypochlorite for 2 hrs at 37° C. DNA samples were subjected to agarose (1%) gel electrophoresis and analyzed.

[6] = Hypochlorite-induced chlorination of 2-aminopurine (2-AP)
Description: 2-AP in PBS was exposed to hypochlorite and fluorescence spectra recorded between 360-390 nm with the emission maximum at 374 nm. The % change in 2-AP calculated.

[7] = typical range, earlier work; read-out: EC50 values for free radical scavenging and antioxidant effects; cited from earlier work

## COc1cc(C[C@@H](CO[C@@H]2O[C@H](CO)[C@@H](O)[C@H](O)[C@H]2O)[C@H](CO[C@@H]2O[C@H](CO)[C@@H](O)[C@H](O)[C@H]2O)Cc2ccc(O)c(OC)c2)ccc1O [SDG, secoisolariciresinol diglucoside]
Calf thymus DNA
  Concentration at which maximum radioprotection of genomic DNA is achieved: approximately 5.0 μM
Calf thymus DNA; 10 μM of each agent
  Radioprotective properties of SDG and metabolites compared: equipotent
[1]
  γ-H2AX positive cells: 22.7%±2.17
[2]
  Apoptotic cells: 9.9%±1.08
[3]; SDG 50 μM pre-treatment, 2 Gy, 24 and 48 hours post-IR
  IR-induced increase in pro-apoptotic Bax mRNA levels: significantly (p<0.05) inhibited
[3]; 24 hours post-IR
  Bcl-2 mRNA levels, increase: 6.6 fold
[3]; 48 hours post-IR
  Bcl-2 mRNA levels, increase: 3.5 fold
[4]
  ClO^− scavenging: decreased ClO^− dose-dependently
[5]
  Ratio APF/HPF: decreased
[5]; 25 and 50 Gy
  ClO^− generation from radiation exposure: blunted
[5]; 50 Gy
  γ-radiation-induced APF and HPF fluorescence: dose-dependently decreased
[5]; 50 Gy, SDG dose response
  Initial slope for decrease of APF fluorescence: 1,816.30
  Initial slope for decrease of HPF fluorescence: 695.75
Plasmid DNA
  Open coiled (OC) form of plasmid DNA: 18.6%±9.4
  Super coiled (SC) form of plasmid DNA: 81.3%±9.4
[6]; 10 μM hypochlorite, SDG pre-treatment 60 seconds
  Hypochlorite-induced decrease of 2-AP fluorescence, pre-treatment: prevented
[6]; SDG added +15 to +300 seconds after ClO^−
  Hypochlorite-induced 2-AP modification, post-treatment: significant recovery
[7]
  EC50: 130 to 200 µM

Reference: patent US10966995B2, “Use of secoisolariciresinol diglucosides (SDGS) and related compounds for protection against radiation and chemical damage” (THE TRUSTEES OF THE UNIVERSITY OF PENNSYLVANIA, priority 2014, dated 2021)
